The source of these data is patent publication US9914910B2, “Methods of preserving and protecting pancreatic beta cells and treating or preventing diabetes by inhibiting NOX-1” (Eastern Virginia Medical School, priority 2013, dated 2018).

In data set [1] the test system is NOX-1 gene expression in beta cells. Nature of the data set: Inflammatory cytokine-induced gene expression in beta cells. Type of data set: cell-based. From the text: Inflammatory cytokines (PIC; IFNγ, TNFα, IL-1β)) induce expression of NOX-1 and MCP-1 in beta cells. Elevated NOX-1 is associated with beta cell dysfunction and NOX-1 expression is associated with feed-forward generation of reactive oxygen species. […] Shown are fold increase, *p<0.05.
Feed-forward activation of NOX-1 can also be reduced with siRNA. Inflammatory cytokines (PIC; IFNγ, TNFα, IL-1β) induce the gene expression of NOX-1 that is further regulated in a feed-forward manner involving reactive oxygen species generated by NOX-1.
Compounds that inhibit interleukin-12, interleukin-23 and/or STAT4 signaling disrupt NOX-1 upregulation by inflammatory cytokines.

Data set [2] deals with beta cells. Nature of the data set: Static glucose-stimulated-insulin-secretion after PIC. The format is cell-based. As to conditions: 100 nM, 3 mM vs 16 mM glucose. As to the method:
Pyrazolopyridine dione compound class of dual selective NOX1/4 inhibitors were also evaluated on preservation of beta cell function and survival with concomitant exposure to inflammatory cytokines. Two NOX1/4 pyrazolopyridine dione compounds C1 and C2 (Methyl-2-phenyl-5-(2-pyridinylmethyl)-1H-pyrazolo[4,3-c]pyridine-3,6(2H,5H)-dione and 5-Benzyl-4-methyl-2-phenyl-1H-pyrazolo[4,3-c]pyridine-3,6(2H,5H)-dione, respectively) were assessed at 100 nM. […] Inflammatory cytokines (PIC; IFNγ, TNFα, IL-1β)) abolished this response. The glucose-stimulated-insulin-secretion response was preserved in the presence of inflammatory cytokines by pyrazolopyridine dione compounds C1 and C2. *p<0.05, **p<0.01.

For data set [3] the following is noted: mice, dosing 1000 mg/Kg per os; cited from earlier work.
For data set [4], the system named is NOX-1 gene expression in primary mouse islets. Nature of the data set: PIC-induced NOX-1 gene expression (RT-PCR). Type of data set: cell-based. As to conditions: NCTT-1 100 nM, ML171 1 μM. An excerpt: Human donor islets were obtained from integrated islet distribution project (http://iidp.coh.org) and cultured in CMRL media (Mediatech, Manassas, Va.). Mouse islets were freshly isolated from 8-week old male C57BL/6J mice (Jackson Laboratory, Bar Harbor, Me.) by common bile duct cannulation and collagenase digestion. Islets were hand picked prior to use. […] Total RNA was isolated using the RNeasy Mini Kit (Qiagen, Valencia, Calif.) and cDNA prepared using MMLV reverse transcriptase (Life Technologies) and random hexamers (Life Technologies). Jump Start Taq polymerase (Life Technologies) was used in PCR reactions. Primers used with SYBR Green 1 (Molecular Probes, Carlsbad, Calif.) probes: […] GAPDH forward [NT] ID NO: 3); GAPDH reverse [NT] NO: 4). RT-PCR reactions were performed in triplicate (CFX96 Bio-Rad, Hercules, Calif.). Taqman primers (Life Technologies) were also used.

Data set [5] concerns MCP-1, IL-12p40, IL-12 p35, IFNγ gene expression in primary mouse islets. Nature of the data set: Cytokine-induced target gene expression (real time PCR). The format is cell-based. As to conditions: NCTT-1 100 nM, ML171 1 μM. Here is the method:
(§1) Total RNA was isolated using the RNeasy Mini Kit (Qiagen, Valencia, Calif.) and cDNA prepared using MMLV reverse transcriptase (Life Technologies) and random hexamers (Life Technologies). Jump Start Taq polymerase (Life Technologies) was used in PCR reactions. […] RT-PCR reactions were performed in triplicate (CFX96 Bio-Rad, Hercules, Calif.). Taqman primers (Life Technologies) were also used. Data was normalized to the housekeeping gene GAPDH and analyzed using the 2-ΔΔCT method.
Data is quantitative real time PCR gene expression analysis from triplicate experiments performed in replicate. Fold induction in gene expression over control (non cytokine-treated) islets is graphed.
A general note: Real-time PCR tracks product formation cycle by cycle.

Data set [6] has as its system MCP-1 expression in INS-1. Put plainly: Cytokine-induced MCP-1 gene expression (real time PCR). The format is cell-based, rat. As to conditions: INS-1, 10 nM. As to the method:
as §1
Data is quantitative real time PCR gene expression analysis from triplicate experiments performed in replicate.

Data set [7] relates to interleukin-12 and interleukin-23 production. As to conditions: cited from earlier work.
The target of a further data set is T1, NOX-1 (Homo sapiens, UniProt Q9Y5S8).
T1 sequence (Q9Y5S8 1-564): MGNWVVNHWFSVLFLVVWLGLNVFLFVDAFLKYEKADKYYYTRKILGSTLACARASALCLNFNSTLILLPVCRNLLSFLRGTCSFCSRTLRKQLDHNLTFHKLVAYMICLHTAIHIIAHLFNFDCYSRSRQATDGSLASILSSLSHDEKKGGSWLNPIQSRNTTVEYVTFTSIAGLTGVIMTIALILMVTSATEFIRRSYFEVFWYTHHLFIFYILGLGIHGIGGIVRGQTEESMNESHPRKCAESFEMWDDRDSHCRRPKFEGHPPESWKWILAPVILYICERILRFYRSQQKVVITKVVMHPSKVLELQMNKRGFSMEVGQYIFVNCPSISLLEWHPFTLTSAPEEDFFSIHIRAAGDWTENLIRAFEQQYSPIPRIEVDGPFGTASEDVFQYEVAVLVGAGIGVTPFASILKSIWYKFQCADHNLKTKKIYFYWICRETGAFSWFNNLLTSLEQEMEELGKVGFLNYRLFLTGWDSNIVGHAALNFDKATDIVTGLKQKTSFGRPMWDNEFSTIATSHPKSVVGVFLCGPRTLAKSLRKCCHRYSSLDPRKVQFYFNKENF
T1 sequence (P13498 1-195 partner): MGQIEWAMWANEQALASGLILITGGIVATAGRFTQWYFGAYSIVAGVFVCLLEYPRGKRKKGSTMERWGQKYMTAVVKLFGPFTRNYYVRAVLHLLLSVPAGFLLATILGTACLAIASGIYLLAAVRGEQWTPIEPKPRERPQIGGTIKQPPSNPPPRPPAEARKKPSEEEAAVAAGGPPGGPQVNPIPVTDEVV
As to conditions: cited from earlier work.

Data set [8] relates to beta cells. Put plainly: Quantified microscopy of YO-PRO-1 stained cells after PIC. The format is cell-based. As to conditions: C1 100 nM, ML171 10 μM. Here is the method:
(§2) Loss of beta cell viability in response to inflammatory cytokines was assessed by measurement of caspase 3 activation and quantified microscopy. […] Measured by pro-caspase 3 cleavage (A) or quantified microscopy of YO-PRO-1 stained cells (B). […] Shown are RFU from fluorescent capase3 substrate, ##p<0.01 relative to control; *p<0.05; **p<0.01 relative to PIC (A) and Microscopic apoptotic index ###p<0.001 relative to control; ***p<0.001; **p<0.01 relative to PIC (B).

The subject of data set [9] is beta cells. Nature of the data set: Pro-caspase 3 cleavage after PIC, beta cell survival. The format is cell-based. As to conditions: C1 100 nM, ML171 10 μM. Here is the method:
as §2

As to `Cc1c2c(=O)n(-c3ccccc3)[nH]c2cc(=O)n1Cc1ccccc1` [C2, 5-Benzyl-4-methyl-2-phenyl-1H-pyrazolo[4,3-c]pyridine-3,6(2H,5H)-dione], the “inflammatory cytokine-induced gene expression (NOX-1 and MCP-1)” value in [1] is “dose-related inhibition”. In the data set on beta cells [2], the “glucose-stimulated-insulin-secretion response with PIC” value is given as “preserved”.

For `Cc1c2c(=O)n(-c3ccccc3Cl)[nH]c2cc(=O)n1Cc1ccccn1` [GKT-136901], in data set [3], the tolerability result is on record as “well tolerated”.

As for `Cc1c2c(=O)n(-c3ccccc3)[nH]c2cc(=O)n1Cc1ccccn1` [NCTT-1], the “induction of gene NOX-1 by PIC” value in data set [4] was “attenuated”. In data set [5], the “induction of gene IFNγ by PIC” value is on record as “attenuated”, the “induction of gene IL-12 p35 by PIC” value is “attenuated”, the “induction of gene IL-12p40 by PIC” value was “attenuated” and the “induction of gene MCP-1 by PIC” value is “attenuated”. In data set [6], the “cytokine-induced MCP-1 expression” value was “attenuated cytokine-induced MCP-1 expression”.

On to `Cc1cccc(/C=N/Nc2cc(N3CCOCC3)nc(OCCc3ccccn3)n2)c1` [STA 5326, 6-morpholino-N-((E)-m-tolylmethyleneamino)-2-(2-(2-pyridyl)ethoxy)pyrimidin-4-amine], for which the “induction of NOX-1 gene expression by inflammatory cytokines” value in data set [1] (1 μM) is listed as “inhibited”. Also, in data set [7], the “interleukin-12 and interleukin-23 production” value is “inhibits interleukin-12 and interleukin-23 production”.

`COc1cc(C(C)=O)ccc1O` [apocynin]: on NOX-1, the “selectivity among NOX isotypes (in words)” value was “non-selective”.

For the compound `c1ccc2c(c1)[I+]c1ccccc1-2` [diphenylene iodonium], the “selectivity among NOX isotypes (in words)” value on NOX-1 is given as “non-selective”.

On to “Methyl-2-phenyl-5-(2-pyridinylmethyl)-1H-pyrazolo[4,3-c]pyridine-3,6(2H,5H)-dione [C1]”, for which, in data set [1], the “inflammatory cytokine-induced gene expression (NOX-1 and MCP-1)” value is “dose-related inhibition”. Besides, the “glucose-stimulated-insulin-secretion response with PIC” value in the data set with beta cells [2] is recorded as “preserved”. Further, the “inflammatory cytokine-induced cell death, YO-PRO-1 microscopic apoptotic index” value in the data set on beta cells [8] is reported as “significantly protected”. Besides, in the data set on beta cells [9], the “inflammatory cytokine-induced cell death, pro-caspase 3 cleavage” value is “significantly protected”.
